Assays:
[1] = tested on: Trypanosoma cruzi; experiment: In vivo trial on Trypanosoma cruzi in the acute phase, Balb/c mice: serological evaluation (anti-T. cruzi ELISA); conditions: for 1st serology (anti-T. cruzi ELISA, optical density): 40 days post-infection, 15 days post-treatment; for 2nd serology (anti-T. cruzi ELISA, optical density): 68 days post-infection, 45 days post-treatment
Description: (§1) Animals and parasites: The Balb/c-type mice are bred in the animal house of the Health Sciences Research Institute (IICS, Asuncion, Paraguay) and are 6 to 8 weeks old at the time of the experimental protocols.
(§2) For these trials, the CL strain (Brener clone) of T. cruzi is used in the circulating form of the parasite (trypomastigotes). The animals are infected intraperitoneally with 5000 parasites; this strain produces its parasite peak 21 to 25 days after infection. Each week, the number of parasites is verified by means of a blood sample taken from the tail of the mouse.
(§3) Infection and treatment: The treatments with benznidazole, the reference medicinal product, and canthin-6-one begin 11 days after parasitic infection, at a rate of 50 mg/kg or 200 mM/kg for benznidazole and at the concentration of 5 mg/kg or 20 mM/kg for canthin-6-one. The duration of the treatments is fixed at two weeks and the chosen route of administration is oral for benznidazole and canthin-6-one; furthermore, a group of mice is treated with canthin-6-one administered subcutaneously. The untreated and infected mice are given 100 μl of a phosphate buffered saline solution.
(§4) • weekly counting of the number of parasites circulating in the peripheral blood throughout the experiment, i.e. 10 weeks; • observation of mortality; • two serological evaluations: 40 days post-infection, i.e. 15 days after treatment has been stopped, and 68 days post-infection, i.e. 45 days post-treatment. The serological evaluation is carried out by means of a Chagas ELISA assay (enzyme linked immunoassay) kit, IISC, Asuncion. The optical densities are measured with an ELISA plate reader (Titerek, Unistan, I).
(§5) Statistical studies: The mean and the standard deviations of each group are calculated, the differences between the groups are determined by means of the Student's test and the Kruskal-Wallis non-parametric analysis of variance test. The comparisons are carried out between the nontreated group and the treated groups, P<0.05.

[2] = tested on: Trypanosoma cruzi; experiment: In vivo trial on Trypanosoma cruzi in the chronic phase, Balb/c mice: serological evaluation (ELISA)
Description: (§6) The Balb/c-type mice are bred in the animal house of the Health Sciences Research Institute (IICS, Asuncion, Paraguay) and are 6 to 8 weeks old at the time of the experimental protocols. For this experimental protocol, the CL strain (Brener clone) of T. cruzi is used in the circulating form (trypomastigotes), and the strain is maintained in routine culture on an animal model by passage every 14 days. The animals are infected intraperitoneally with 1000 parasites. Under these experimental conditions, the parasites develop slowly; this strain produces a parasite peak 21 to 28 days after infection. The majority of the mice survive (70-80%) with slight deterioration of their general physical condition and with absent or subpatent parasitemia. Each week, the number of parasites is verified by taking a blood sample from the tail of the mouse.
(§7) For this long-duration experiment, the treatments begin 120 days after parasitic infection, when the parasitemia is subpatent in all the mice. The mice are then divided up into groups randomly. The treatments with benznidazole, the reference medicinal product, are administered at a concentration of 50 mg/kg or 200 mM/kg per day for 20 days, orally. Canthin-6-one is administered either orally or subcutaneously at a concentration of 5 mg/kg or 20 mM/kg per day for 20 days. A total dichloromethane extract of Zanthoxylum chiloperone var. angustifolium trunk bark is administered orally or subcutaneously at a concentration of 50 mg/kg per day for 20 days. For administration, the active principles are dissolved in 50 μl of a phosphate buffered saline (PBS) solution. The untreated and infected mice receive 50 μl of PBS.
• Weekly counting of the number of parasites circulating in the peripheral blood throughout the experiment, i.e. […] The serological evaluation is carried out using a Chagas ELISA assay (enzyme linked immunoassay) kit, IISC, Asuncion. The optical densities are measured with an ELISA plate reader (Titerek, Unistan, I). Statistical Studies:
as §5, with “The” for “Statistical studies: The”, “calculated, and” for “calculated,”, “untreated” for “nontreated”

[3] = tested on: Trypanosoma cruzi; experiment: In vivo trial on Trypanosoma cruzi in the acute phase, Balb/c mice: parasitological evaluation (parasites in peripheral blood)
Description: as §1, §2, §3, §4, §5

[4] = tested on: Trypanosoma cruzi; experiment: In vivo trial on Trypanosoma cruzi in the chronic phase, Balb/c mice: parasitemia and mortality
Description: as §6
as §7, with “For this long-duration experiment, the treatments begin 120 days after parasitic infection, when the parasitemia is subpatent in all the mice.” left out
• Weekly counting of the number of parasites circulating in the peripheral blood throughout the experiment, i.e. 30 weeks. • Observation of mortality. • Three serological evaluations, 45 days before the beginning of treatments, 10 days after treatment has stopped and 75 days post-treatment. The serological evaluation is carried out using a Chagas ELISA assay (enzyme linked immunoassay) kit, IISC, Asuncion. The optical densities are measured with an ELISA plate reader (Titerek, Unistan, I). Statistical Studies:
as §5, with “The” for “Statistical studies: The”, “calculated, and” for “calculated,”, “untreated” for “nontreated”

O=C(Cn1ccnc1[N+](=O)[O-])NCc1ccccc1 [Benznidazole, benznidazole, reference compound]
1st serology (anti-T. cruzi ELISA, optical density) ([1]; 50 mg oral): 0.1692 ± 0.1179
2nd serology (anti-T. cruzi ELISA, optical density) ([1]; 50 mg oral): 0.7934 ± 0.8607
ELISA (optical density ± standard deviation) ([2]; 10 d post-treatment, 50 mg/kg/d orally): 1.712 ± 0.473
ELISA (optical density ± standard deviation) ([2]; 43 days before treatment (baseline), 50 mg/kg/d orally): 2.072 ± 0.220
ELISA (optical density ± standard deviation) ([2]; 75 d post-treatment, 50 mg/kg/d orally): 1.979 ± 0.350
eradication of Trypanosoma cruzi from the infected organism, acute phase ([3]; 50 mg/kg/d): does not make it possible to obtain
number of parasites ± standard deviation ([3]; day 4 post-infection (before treatment), 50 mg/kg oral, two weeks from day 11, n = 8): 0
number of parasites ± standard deviation ([3]; day 11 post-infection (period of treatment), 50 mg/kg oral, n = 8): 0
number of parasites ± standard deviation ([3]; day 18 post-infection (period of treatment), 50 mg/kg oral, n = 8): 34.9 ± 98.6
number of parasites ± standard deviation ([3]; day 25 post-infection (period of treatment), 50 mg/kg oral, n = 8): 250.1 ± 503.5
number of parasites ± standard deviation ([3]; day 32 post-infection, 50 mg/kg oral, two weeks from day 11, n = 8): 296.8 ± 625.5
number of parasites ± standard deviation ([3]; day 39 post-infection, 50 mg/kg oral, two weeks from day 11, n = 8): 118.3 ± 192.9
number of parasites ± standard deviation ([3]; day 45 post-infection, 50 mg/kg oral, two weeks from day 11, n = 8): 300.8 ± 431.6
number of parasites ± standard deviation ([3]; day 53 post-infection, 50 mg/kg oral, two weeks from day 11, n = 8): 23.3 ± 65.8
number of parasites ± standard deviation ([3]; day 60 post-infection, 50 mg/kg oral, two weeks from day 11, n = 8): 65.3 ± 93.2
number of parasites ± standard deviation ([3]; day 68 post-infection, 50 mg/kg oral, two weeks from day 11, n = 8): 9.4 ± 26.5
Negative parasitemia/number of surviving mice ([4]; 0 days post-treatment, 50 mg/kg/d orally for 20 days): 5/5
Negative parasitemia/number of surviving mice ([4]; 10 d post-treatment, 50 mg/kg/d orally for 20 days): 2/5
Negative parasitemia/number of surviving mice ([4]; 40 d post-treatment, 50 mg/kg/d orally for 20 days): 5/5
Negative parasitemia/number of surviving mice ([4]; 60 d post-treatment, 50 mg/kg/d orally for 20 days): 5/5

O=c1ccc2nccc3c4ccccc4n1c23 [canthin-6-one]
1st serology (anti-T. cruzi ELISA, optical density) ([1]; 5 mg SC): 0.2151 ± 0.1447
1st serology (anti-T. cruzi ELISA, optical density) ([1]; 5 mg oral): 0.1105 ± 0.0387
2nd serology (anti-T. cruzi ELISA, optical density) ([1]; 5 mg SC): 0.1347 ± 0.6327
2nd serology (anti-T. cruzi ELISA, optical density) ([1]; 5 mg oral): 0.3953 ± 0.7531
ELISA (optical density ± standard deviation) ([2]; 10 d post-treatment, 5 mg/kg orally): 1.621 ± 0.547
ELISA (optical density ± standard deviation) ([2]; 10 d post-treatment, 5 mg/kg/d subcutaneously): 1.850 ± 0.405
ELISA (optical density ± standard deviation) ([2]; 43 days before treatment (baseline), 5 mg/kg orally): 1.878 ± 0.348
ELISA (optical density ± standard deviation) ([2]; 43 days before treatment (baseline), 5 mg/kg/d subcutaneously): 1.916 ± 0.368
ELISA (optical density ± standard deviation) ([2]; 75 d post-treatment, 5 mg/kg orally): 1.799 ± 0.333
ELISA (optical density ± standard deviation) ([2]; 75 d post-treatment, 5 mg/kg/d subcutaneously): 1.870 ± 0.268
effective dose against Trypanosoma cruzi relative to benznidazole ([3]; activity assays, general statement): doses ten times lower than the doses at which benznidazole is effective
number of parasites ± standard deviation ([3]; day 4 post-infection (before treatment), 5 mg/kg oral, two weeks from day 11, n = 7): 0
number of parasites ± standard deviation ([3]; day 4 post-infection (before treatment), 5 mg/kg subcutaneous, two weeks from day 11, n = 8): 0
number of parasites ± standard deviation ([3]; day 11 post-infection (period of treatment), 5 mg/kg oral, n = 7): 0
number of parasites ± standard deviation ([3]; day 11 post-infection (period of treatment), 5 mg/kg subcutaneous, n = 8): 0
number of parasites ± standard deviation ([3]; day 18 post-infection (period of treatment), 5 mg/kg oral, n = 7): 285 ± 515.9
number of parasites ± standard deviation ([3]; day 18 post-infection (period of treatment), 5 mg/kg subcutaneous, n = 8): 766.3 ± 719.2
number of parasites ± standard deviation ([3]; day 25 post-infection (period of treatment), 5 mg/kg oral, n = 7): 402 ± 837.7
number of parasites ± standard deviation ([3]; day 25 post-infection (period of treatment), 5 mg/kg subcutaneous, n = 8): 88.4 ± 142.9
number of parasites ± standard deviation ([3]; day 32 post-infection, 5 mg/kg oral, two weeks from day 11, n = 7): 426.2 ± 664.5
number of parasites ± standard deviation ([3]; day 32 post-infection, 5 mg/kg subcutaneous, two weeks from day 11, n = 8): 267.5 ± 546.5
number of parasites ± standard deviation ([3]; day 39 post-infection, 5 mg/kg oral, two weeks from day 11, n = 7): 36.6 ± 58.4
number of parasites ± standard deviation ([3]; day 39 post-infection, 5 mg/kg subcutaneous, two weeks from day 11, n = 8): 2077.1 ± 2214.2
number of parasites ± standard deviation ([3]; day 45 post-infection, 5 mg/kg oral, two weeks from day 11, n = 7): 34.4 ± 76.9
number of parasites ± standard deviation ([3]; day 45 post-infection, 5 mg/kg subcutaneous, two weeks from day 11, n = 8): 314.1 ± 499.3
number of parasites ± standard deviation ([3]; day 53 post-infection, 5 mg/kg oral, two weeks from day 11, n = 7): 58.4 ± 80.6
number of parasites ± standard deviation ([3]; day 53 post-infection, 5 mg/kg subcutaneous, two weeks from day 11, n = 8): 473.4 ± 921.9
number of parasites ± standard deviation ([3]; day 60 post-infection, 5 mg/kg oral, two weeks from day 11, n = 7): 16 ± 35.8
number of parasites ± standard deviation ([3]; day 60 post-infection, 5 mg/kg subcutaneous, two weeks from day 11, n = 8): 129.9 ± 194.4
number of parasites ± standard deviation ([3]; day 68 post-infection, 5 mg/kg oral, two weeks from day 11, n = 7): 0
number of parasites ± standard deviation ([3]; day 68 post-infection, 5 mg/kg subcutaneous, two weeks from day 11, n = 8): 34.9 ± 98.6
eradication of Trypanosoma cruzi from the infected organism, acute phase ([3]; orally 5 mg/kg/d): complete eradication of Trypanosoma cruzi from the infected organism
activity compared with benznidazole (50 mg/kg/d), acute phase ([3]; orally 5 mg/kg/d, from the 39th day after infestation, 15 days after the end of treatment): activity that is much greater than the benznidazole
Negative parasitemia/number of surviving mice ([4]; 0 days post-treatment, 5 mg/kg orally for 20 days): 7/8
Negative parasitemia/number of surviving mice ([4]; 0 days post-treatment, 5 mg/kg/d subcutaneously for 20 days): 6/8
Negative parasitemia/number of surviving mice ([4]; 10 d post-treatment, 5 mg/kg orally for 20 days): 7/8
Negative parasitemia/number of surviving mice ([4]; 10 d post-treatment, 5 mg/kg/d subcutaneously for 20 days): 7/8
Negative parasitemia/number of surviving mice ([4]; 40 d post-treatment, 5 mg/kg orally for 20 days): 8/8
Negative parasitemia/number of surviving mice ([4]; 40 d post-treatment, 5 mg/kg/d subcutaneously for 20 days): 6/8
Negative parasitemia/number of surviving mice ([4]; 60 d post-treatment, 5 mg/kg orally for 20 days): 8/8
Negative parasitemia/number of surviving mice ([4]; 60 d post-treatment, 5 mg/kg/d subcutaneously for 20 days): 6/8
eradication of Trypanosoma cruzi from the infected organism, chronic phase ([4]; orally 5 mg/kg/d for 20 days): complete eradication of Trypanosoma cruzi from the infected organism
protection of the mice against death, chronic phase ([4]; orally 5 mg/kg/d for 20 days): protects the mice against death
activity compared with benznidazole (50 mg/kg/d), chronic phase ([4]; orally 5 mg/kg/d for 20 days from the 108th day after parasitic infection, 79 days after the end of the treatment): greater activity than benznidazole

Source: patent US7705013B2, “Use of canthin-6-one, plant extracts containing same and derivatives thereof in the treatment of trypanosomiases” (Institut de Recherche pour le Developpement, priority 2002, dated 2010)
